These results are taken from ChEMBL document CHEMBL1154885, “Heat shock protein 90: inhibitors in clinical trials” (J Med Chem, 2010).

For data set [1], the target named is T1, Heat shock protein HSP 90-beta (Homo sapiens, UniProt P08238).
Description: (§1) Inhibition of HSP90-mediated client protein HER2 degradation
The nature of data set [2]: animal or person. Particulars: Homo sapiens, CWR22, po, read-out: TGI.
Description: Antitumor activity against human CWR22 cells xenografted in BALB/c mouse at 120 mg/kg, po administered in QDx5 schedule
Data set [3] is described as follows: Half life in mouse at 100 mg/kg, po. It counts as ADME, organism-based. On the set-up: dose 100 mg/kg, route oral. The following applies: in vivo.
In another data set the test system is SK-OV-3. As to the kind of experiment: animal or person. The following applies: Mus musculus, SK-OV-3, po, read-out: TGI.
For a further data set, the system named is PANC-1. Briefly: animal or person. Particulars: Mus musculus, PANC-1, po, read-out: TGI.
Data set [4] can be described thus: animal or person. Particulars: Homo sapiens, U-87 MG, po, read-out: TGI.
Description: Antitumor activity against human U87 cells xenografted in BALB/c mouse at 75 mg/kg, po administered in BIDx5 schedule
In another data set the test system is BT-474. Briefly: animal or person. Particulars: Mus musculus, BT-474, po, read-out: TGI.
Data set [5] can be described thus: Tmax in mouse at 100 mg/kg, po. It is filed as ADME, organism-based. On the set-up: dose 100 mg/kg, route oral. The following applies: in vivo.
Another data set deals with NCI-N87. As to the kind of experiment: animal or person. Particulars: Mus musculus, NCI-N87, po, read-out: TGI.
Data set [6] in a line: Cmax in mouse at 100 mg/kg, po. The following applies: in vivo. It is filed as ADME, organism-based. Details: dose 100 mg/kg, route oral.
Data set [7] is described as follows: AUC in mouse at 100 mg/kg, po. It is filed as ADME, organism-based. On the set-up: dose 100 mg/kg, route oral. Particulars: plasma.
A further data set has as its system Mus musculus. As to the kind of experiment: Toxicity in BALB/c mouse assessed as body weight loss at 125 mg/kg, po administered in QDx5 schedule. Particulars: in vivo. It is filed as organism-based. On the set-up: dose 125 mg/kg, route oral.
Data set [8] can be described thus: Apparent volume of distribution in tumor of mouse bearing human A2780 cells at 80 mg/kg, ip administered as DMSO/egg phospholipid formulation. It counts as ADME, organism-based, Neoplasm. Details: dose 80 mg/kg, route intraperitoneal. Particulars: in vivo.
Data set [9] in a line: Half life in human at 220 mg/m2 administered as DMSO/egg phospholipid formulation. It counts as ADME, organism-based. The following applies: in vivo.
The nature of data set [10]: AUC in plasma of mouse bearing human A2780 cells at 80 mg/kg, ip administered as DMSO/egg phospholipid formulation. Details: dose 80 mg/kg, route intraperitoneal. It is filed as ADME, organism-based.
The target in data set [11] is T1, Heat shock protein HSP 90-beta. The source holds these as a separate data set.
Description: Inhibition of HSP90-mediated client protein HER2 degradation in human MCF7 cells
Data set [12] is described as follows: Cmax in plasma of mouse bearing human A2780 cells at 80 mg/kg, ip administered as DMSO/egg phospholipid formulation. It counts as ADME, organism-based. Details: dose 80 mg/kg, route intraperitoneal.
Data set [13] concerns Liver. As to the kind of experiment: Apparent volume of distribution in liver of mouse bearing human A2780 cells at 80 mg/kg, ip administered as DMSO/egg phospholipid formulation. It counts as ADME, organism-based. Particulars: in vivo. On the set-up: dose 80 mg/kg, route intraperitoneal.
Data set [14] is described as follows: Cmax in tumor of mouse bearing human A2780 cells at 80 mg/kg, ip administered as DMSO/egg phospholipid formulation. Details: dose 80 mg/kg, route intraperitoneal. Particulars: read-out: Cmax_tumor. It is filed as ADME, organism-based, Neoplasm.
Data set [15] has as its target T1, Heat shock protein HSP 90-beta. This is another data set of the same source.
Description: as §1
Data set [16] relates to Liver. Briefly: Clearance in liver of mouse bearing human A2780 cells at 80 mg/kg, ip administered as DMSO/egg phospholipid formulation. Particulars: in vivo. Details: dose 80 mg/kg, route intraperitoneal. It is filed as ADME, organism-based.
A short description of data set [17]: Half life in plasma of mouse bearing human A2780 cells at 80 mg/kg, ip administered as DMSO/egg phospholipid formulation. It is filed as ADME, organism-based. Details: dose 80 mg/kg, route intraperitoneal.
A short description of data set [18]: Clearance in plasma of mouse bearing human A2780 cells at 80 mg/kg, ip administered as DMSO/egg phospholipid formulation. It counts as ADME, organism-based. Details: dose 80 mg/kg, route intraperitoneal.
The nature of data set [19]: Volume of distribution at steady state in human at 220 mg/m2 administered as DMSO/egg phospholipid formulation. It is filed as ADME, organism-based. Particulars: in vivo, read-out: Vdss.
The subject of the next data set is Plasma. As to the kind of experiment: Apparent volume of distribution in plasma of mouse bearing human A2780 cells at 80 mg/kg, ip administered as DMSO/egg phospholipid formulation. It counts as ADME, organism-based. Details: dose 80 mg/kg, route intraperitoneal. Particulars: in vivo.
A short description of data set [20]: Cmax in human at 220 mg/m2 administered as DMSO/egg phospholipid formulation. It counts as ADME, organism-based. The following applies: in vivo.
The nature of data set [21]: Tmax in human at 220 mg/m2 administered as DMSO/egg phospholipid formulation. It counts as ADME, organism-based. The following applies: in vivo.
Data set [22] is described as follows: Cmax in liver of mouse bearing human A2780 cells at 80 mg/kg, ip administered as DMSO/egg phospholipid formulation. It counts as ADME, organism-based. On the set-up: dose 80 mg/kg, route intraperitoneal.
Data set [23] has as its target T1, Heat shock protein HSP 90-beta. This is another data set of the same source.
Description: Binding affinity to HSP90 under reducing conditions in presence of TECP
For data set [24] the target is unchanged. This is another data set of the same source.
Description: Binding affinity to HSP90 under non-reducing conditions in absence of TECP
Data set [25] in a line: AUC in tumor of mouse bearing human A2780 cells at 80 mg/kg, ip administered as DMSO/egg phospholipid formulation. It counts as ADME, organism-based, Neoplasm. On the set-up: dose 80 mg/kg, route intraperitoneal.
Data set [26] can be described thus: Clearance in tumor of mouse bearing human A2780 cells at 80 mg/kg, ip administered as DMSO/egg phospholipid formulation. The following applies: in vivo. Details: dose 80 mg/kg, route intraperitoneal. It is filed as ADME, organism-based, Neoplasm.
Data set [27] can be described thus: Half life in liver of mouse bearing human A2780 cells at 80 mg/kg, ip administered as DMSO/egg phospholipid formulation. It counts as ADME, organism-based. On the set-up: dose 80 mg/kg, route intraperitoneal.
The nature of data set [28]: AUC in human at 220 mg/m2 administered as DMSO/egg phospholipid formulation. It is filed as ADME, organism-based. Particulars: plasma.
Data set [29] can be described thus: Half life in tumor of mouse bearing human A2780 cells at 80 mg/kg, ip administered as DMSO/egg phospholipid formulation. On the set-up: dose 80 mg/kg, route intraperitoneal. It is filed as ADME, organism-based, Neoplasm.
Data set [30] in a line: AUC in liver of mouse bearing human A2780 cells at 80 mg/kg, ip administered as DMSO/egg phospholipid formulation. It is filed as ADME, organism-based. On the set-up: dose 80 mg/kg, route intraperitoneal.

One may read the half-life as the time in which the quantity being followed falls by half. High values mean slow decline, low ones rapid decline. In general, Tmax refers to the time at which the peak concentration occurs. Broadly, the AUC is concentration integrated over time. A higher AUC goes with high exposure. In general, IC50 refers to the concentration needed to halve the response being measured. Low readings indicate higher potency, high ones lower potency. One may read the CL/F as clearance divided by bioavailability, as obtained after extravascular dosing. The term Ki denotes a dissociation constant, usually derived from enzyme kinetics or from competition with a known ligand. Higher therefore signals lower affinity.

T1 sequence (P08238 whole entry): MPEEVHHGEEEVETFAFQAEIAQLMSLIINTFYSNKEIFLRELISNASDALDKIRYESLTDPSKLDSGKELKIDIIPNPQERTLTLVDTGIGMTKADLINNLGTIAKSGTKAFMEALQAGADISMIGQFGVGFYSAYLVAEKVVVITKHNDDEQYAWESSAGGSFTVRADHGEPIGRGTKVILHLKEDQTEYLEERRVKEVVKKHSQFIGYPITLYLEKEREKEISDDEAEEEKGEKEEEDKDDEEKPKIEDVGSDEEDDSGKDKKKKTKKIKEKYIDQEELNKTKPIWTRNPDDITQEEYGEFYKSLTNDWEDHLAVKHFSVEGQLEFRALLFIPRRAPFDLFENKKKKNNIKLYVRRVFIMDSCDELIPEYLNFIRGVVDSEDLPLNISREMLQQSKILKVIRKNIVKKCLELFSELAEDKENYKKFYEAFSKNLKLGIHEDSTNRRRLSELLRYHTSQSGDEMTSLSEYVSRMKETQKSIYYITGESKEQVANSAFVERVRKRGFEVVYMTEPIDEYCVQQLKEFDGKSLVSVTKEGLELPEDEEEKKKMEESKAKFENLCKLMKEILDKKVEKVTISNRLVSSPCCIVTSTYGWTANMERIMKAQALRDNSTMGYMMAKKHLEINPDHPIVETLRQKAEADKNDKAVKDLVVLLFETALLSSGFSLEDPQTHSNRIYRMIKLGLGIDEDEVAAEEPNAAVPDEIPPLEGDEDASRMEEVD
Description for BT-474: Antitumor activity against human BT474 cells xenografted in BALB/c mouse at 120 mg/kg, po administered in QDx5 schedule
Description for NCI-N87: Antitumor activity against human NCI-N87 cells xenografted in BALB/c mouse at 125 mg/kg, po administered in QDx5 schedule
Description for PANC-1: Antitumor activity against human PANC1 cells xenografted in BALB/c mouse at 124 mg/kg, po administered in QDx5 schedule
Description for SK-OV-3: Antitumor activity against human SKOV3 cells xenografted in BALB/c mouse at 124 mg/kg, po administered in QDx5 schedule

Compound `CCCCn1c(Cc2ccc(OC)c(OC)c2OC)nc2c(N)ncnc21` showed an Activity in [1] of 40000 nM.

`CCOP(=O)(CCn1c(Sc2nc3cccc(Cl)c3s2)nc2c(N)ncnc21)OCC` had an Activity in data set [1] of 30 nM.

Take `COc1c(C)cnc(Cn2cnc3c(Cl)nc(N)nc32)c1C` [BIIB021]: the inhibition in vivo at 120 mg/kg in the data set “animal or person [2]” is 85%; in the data set on BT-474, 94%. This compound also had a half-life in data set [3] of 48 min. Also, the inhibition in vivo at 124 mg/kg turned out to be 67% in the data set on SK-OV-3 and 51% in the data set on PANC-1. Further, in the data set “animal or person [4]”, the inhibition in vivo at 75 mg/kg is 70%. In data set [5], the Tmax stood at 6 min. For the same compound, the inhibition in vivo at 125 mg/kg with NCI-N87 amounted to 87%. In [6], this compound had a Cmax of 31 µM. The compound further showed an AUC in data set [7] of 15 µM·h. Further, the Activity in the data set on Mus musculus is recorded as 3%.

With `CO[C@H]1/C=C\C=C(/C)C(=O)NC2=CC(=O)C(N)=C(C[C@@H](C)C[C@H](OC)[C@H](O)[C@@H](C)/C=C(\C)[C@@H]1OC(N)=O)C2=O`, the Vz came to 0.49 L in [8], 0.06 L with Liver [13] and 0.18 L with Plasma. In addition, the half-life in data set [9] was 414 min; in data set [17], 72 min; in data set [27], 108 min; in [29] it was 822 min. In addition, the AUC in data set [10] worked out at 15 µM·h; in data set [25], 43 µM·h; in [28] it was 21 µM·h; in data set [30], 59 µM·h. The IC50 came to 12 nM in data set [11] and 7 nM in data set [15]. Also, the Cmax in [12] amounted to 4.8 µM; in data set [14], 3.5 µM; in [20], 3000 nM; in data set [22], 18 µM. Also, the CL with Liver [16] turned out to be 0.02 L/h; in [26] it was 0.03 L/h. Further, the apparent clearance (CL/F) in data set [18] was 1.83 mL/min. The Vd in data set [19] was found to be 230 L. Further, the Tmax in data set [21] amounted to 1.7 h. Moreover, the Ki in data set [23] amounted to 3 nM; in data set [24], 21 nM.

Consider `COc1ccc(I)c(Sc2nc3c(N)ncnc3n2CCNCC(C)(C)C)c1`, for which the Activity in data set [1] is 30 nM.
